One series deals with T1, hS1P3 receptors (Homo sapiens, UniProt Q99500).
T1 construct: expressed in transfected cells; host or cells: CHO cells (Geneticin-selected)
The series can be described thus: Intracellular Ca2+ mobilization in CHO cells expressing human S1P receptors (hS1P3). In kind it is cell-based. Particulars: read-out: S1P3 (EC50 class, intracellular Ca2+ mobilization). On the procedure: (§1) Test for the Ability of Test Compounds to Induce Intracellular Ca^2+ Mobilization in Cells Expressing Human S1P (Sphingosine-1-Phosphate) Receptors
(§2) CHO cells expressing human S1P receptors (i.e., CHO cells expressing hS1P1 receptors or hS1P3 receptors) were subcultured on Ham's F-12 medium supplemented with 10% fetal bovine serum and 200 μg/mL Geneticin. The cells were seeded on a 96-well black clear bottom plate (COSTAR) at 4×10^4 cells/well and were cultured overnight at 37° C. in 5% CO2. A fluorescent reagent that emits fluorescence upon binding to Ca^2+ (Calcium Screening Kit (DOJINDO)) was added to the culture and the cells were further cultured for 60 min at 37° C. in 5% CO2. After culturing, microplate spectrofluorometer (FLEX station, MOLECULAR DEVICE) was used to measure the fluorescence intensity at an excitation wavelength of 485 nm and a detection wavelength of 525 nm. S1P or a test compound adjusted with cultural medium to a concentration 10 times higher than the final concentration (final DMSO concentration=0.1%). Each test compound solution was added 18 sec. after beginning of the measurement of fluorescence. The fluorescence intensity was measured every 1.5 sec for 100 sec. For each test compound, the difference between the maximum fluorescence intensity and the minimum fluorescence intensity (i.e., increase in fluorescence) was determined from the measurements. The rate of fluorescence increase (%) for each test compound was calculated by the difference (100%) of the fluorescence increase between solvent only and S1P (10^−6M). Using this value as an index of the ability of the test compound to induce intracellular Ca^2+ mobilization, EC50 was determined by PRISM software (GraphPad).
Background: Calcium assays in cells follow changes in intracellular calcium, usually with a dye or a luminescent sensor.

A further series concerns the target T2, hS1P1 receptors (Homo sapiens, UniProt P21453).
T2 construct: expressed in transfected cells; host or cells: CHO cells (Geneticin-selected)
The series can be described thus: Intracellular Ca2+ mobilization in CHO cells expressing human S1P receptors (hS1P1). The series is classed as cell-based. The following applies: read-out: S1P1 (EC50 class, intracellular Ca2+ mobilization). On the procedure: as §1, §2

Series [1] has as its system host vs. graft rejection in mice. In words: Inhibitory effects on host vs. graft rejection in mice (right popliteal lymph node weight). In kind it is in vivo, C3H/HeN mice. The following applies: Mus musculus. On the procedure:
Inhibitory Effects of Test Compounds on Host Vs. Graft Rejection in Mice
This experiment was performed according to the method described in Transplantation 55(3) (1993): 578-591. Spleens were collected from 6 to 16 week old male BALB/c mice (CHARLES RIVER JAPAN). The spleens were placed in an RPMI-1640 medium (SIGMA) and were gently pressed between two slide glasses and then passed through a cell strainer (70 μm, Falcon) to form a cell suspension. The suspension was then centrifuged and the supernatant was discarded. An ammonium chloride-Tris isotonic buffer was added to the suspension to lyse erythrocytes. The cells were then centrifuged three times in RPMI-1640 medium for washing and were resuspended in an RPMI-1640 medium. To this suspension, mitomycin C (KYOWA HAKKO KOGYO Co., Ltd.) was added to a final concentration of 25 μg/mL and the suspension was incubated for 30 minutes at 37° C. in a 5% CO2 atmosphere. The cells were centrifuged three times in RPMI-1640 medium for washing and were resuspended in an RPMI-1640 medium so that the medium would contain 2.5×10^8 cells/mL. This suspension served as a “stimulation cell suspension.” Using a 27 G needle with a microsyringe (Hamilton), 20 μL (5×10^6 cells/mouse) of the stimulation cell suspension was subcutaneously injected into the right hind footpad of 6 to 8 week old male C3H/HeN mice (CLEA JAPAN). Normal control group was injected with RPMI-1640 medium alone. 4 days after the injection, right popliteal lymph nodes were collected and were weighed on a Mettler AT201 electronic scale (METTLER TOLEDO Co., Ltd.). Each animal was intraperitoneally administered a test compound once a day for four consecutive days starting on the day of the injection of the stimulation cells (i.e., total of 4 times). Control groups were administered the same vehicle as that used in the preparation of each test compound. The inhibition (%) was determined using the following formula {[Weight of right popliteal lymph nodes of positive control group]−[Weight of right popliteal lymph nodes of test compound group]×100}/{[Weight of right popliteal lymph nodes of positive control group]−[Weight of right popliteal lymph nodes of normal control group]} Formula 1

Structures can show the parent of a compound that is named as a salt.

T2 sequence (P21453 whole entry): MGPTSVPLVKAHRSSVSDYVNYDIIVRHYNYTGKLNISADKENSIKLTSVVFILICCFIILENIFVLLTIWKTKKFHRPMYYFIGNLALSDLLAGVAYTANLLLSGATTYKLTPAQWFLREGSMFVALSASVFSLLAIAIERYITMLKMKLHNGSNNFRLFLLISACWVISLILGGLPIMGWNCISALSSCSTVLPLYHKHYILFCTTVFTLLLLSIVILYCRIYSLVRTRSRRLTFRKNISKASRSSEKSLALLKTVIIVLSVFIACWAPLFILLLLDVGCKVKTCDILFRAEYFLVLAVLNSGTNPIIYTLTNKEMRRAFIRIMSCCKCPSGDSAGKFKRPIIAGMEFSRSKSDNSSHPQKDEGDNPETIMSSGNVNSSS
T1 sequence (Q99500 whole entry): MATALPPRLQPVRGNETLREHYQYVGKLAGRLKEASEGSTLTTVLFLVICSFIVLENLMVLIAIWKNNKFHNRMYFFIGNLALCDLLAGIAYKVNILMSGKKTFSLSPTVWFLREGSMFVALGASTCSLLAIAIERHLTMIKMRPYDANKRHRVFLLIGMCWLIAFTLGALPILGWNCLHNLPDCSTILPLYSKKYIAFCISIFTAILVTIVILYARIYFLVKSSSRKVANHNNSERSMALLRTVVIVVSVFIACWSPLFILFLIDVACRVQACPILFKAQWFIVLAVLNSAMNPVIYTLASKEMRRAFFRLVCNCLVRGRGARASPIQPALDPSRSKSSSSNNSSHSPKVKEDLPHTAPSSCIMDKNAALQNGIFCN

Consider `CC(N)(CCCc1ccc(Sc2cccc(OCc3ccccc3)c2)cc1Cl)COP(=O)(O)O` (single isomer, unassigned; (+)) [Example 239, (+)-2-amino-5-[4-(3-benzyloxyphenylthio)-2-chlorophenyl]-2-methylpentylphosphonate monoester], for which the EC50 at hS1P3 receptors and at hS1P1 receptors was less than 10 nM each time. In addition, 0.03 mg/kg produced 65% inhibition in vivo in series [1].
In turn, `COP(=O)(OC)OCC(C)(CCc1ccc(Sc2cccc(OCc3ccccc3)c2)cc1Cl)NC(=O)OC(C)(C)C` (single isomer, unassigned; (+)) [Example 247, (+)-4-[4-(3-benzyloxyphenylthio)-2-chlorophenyl]-2-t-butoxycarbonylamino-1-dimethoxyphosphoryloxy-2-methylbutane] had an inhibition in vivo at 0.03 mg/kg in series [1] of 63%.
`CC(N)(CCCc1ccc(Sc2cccc(OCc3ccccc3)c2)cc1Cl)COP(=O)(O)O` (single isomer, unassigned; (-)) [Example 240, (−)-2-amino-5-[4-(3-benzyloxyphenylthio)-2-chlorophenyl]-2-methylpentylphosphonate monoester] came in with a melting point of 200 to 203 °C. Also, on hS1P3 receptors, the EC50 was in the range of 100 to 1000 nM. Besides, the half-maximal effective concentration (EC50) at hS1P1 receptors lay within 10 to 100 nM.
Consider `CCOP(=O)(C=CC(N)CCCc1ccc(Sc2cccc(OCc3ccccc3)c2)cc1Cl)OCC` (stereo not drawn) [Example 233, Diethyl 3-amino-6-[4-(3-benzyloxyphenylthio)-2-chlorophenyl]-1-hexenylphosphonate hydrochloride], for which at 30 mg/kg the inhibition in vivo in series [1] was 53%.
The same measure, in the same setting: the figure for `CCOP(=O)(CCC(N)CCCc1ccc(Sc2cccc(OCc3ccccc3)c2)cc1Cl)OCC` (stereo not drawn) [Example 235, Diethyl 3-amino-6-[4-(3-benzyloxyphenylthio)-2-chlorophenyl]hexylphosphonate hydrochloride] is 56%.
`NC(CO)(CCCc1ccc(Sc2cccc(O)c2)cc1Cl)COP(=O)(O)O` (stereo not drawn) [Example 238, 2-amino-5-[2-chloro-4-(3-hydroxyphenylthio)phenyl]-2-hydroxymethylpentylphosphonate monoester]: the EC50 at hS1P3 receptors is no less than 1000 nM; at hS1P1 receptors, 100 to 1000 nM. The same molecule gave an inhibition in vivo at 3 mg/kg in series [1] (Dose 3 mg/kg) of 65%.
Turning to `NC(CCCc1ccc(Sc2cccc(OCc3ccccc3)c2)cc1Cl)CCP(=O)(O)O` (stereo not drawn) [Example 241, 3-amino-6-[4-(3-benzyloxyphenylthio)-2-chlorophenyl]hexylphosphonic acid], the 50% effective concentration (EC50) was no less than 1000 nM on hS1P3 receptors and 100 to 1000 nM at hS1P1 receptors. Moreover, in series [1], at 10 mg/kg the inhibition in vivo was 46%.
As for `NC(/C=C/P(=O)(O)O)CCCc1ccc(Sc2cccc(OCc3ccccc3)c2)cc1Cl` (stereo not drawn) [Example 242, 3-amino-6-[4-(3-benzyloxyphenylthio)-2-chlorophenyl]-1-hexenylphosphonic acid], the EC50 at hS1P3 receptors was no less than 1000 nM; on hS1P1 receptors, 100 to 1000 nM. The inhibition in vivo at 10 mg/kg in series [1] was determined as 62%.
`NC(/C=C(/F)P(=O)(O)O)CCc1ccc(Sc2cccc(OCc3ccccc3)c2)cc1Cl` (stereo not drawn) [Example 253, (Z)-3-amino-5-[4-(3-benzyloxyphenylthio)-2-chlorophenyl]-1-fluoro-1-pentenylphosphonic acid] showed a melting point of 285 to 288 °C. Moreover, at hS1P3 receptors, the EC50 is 100 to 1000 nM. The concentration for a half-maximal effect (EC50) at hS1P1 receptors lay within 100 to 1000 nM.
Molecule `NC(/C=C(\F)P(=O)(O)O)CCc1ccc(Sc2cccc(OCc3ccccc3)c2)cc1Cl` (stereo not drawn) [Example 254, (E)-3-amino-5-[4-(3-benzyloxyphenylthio)-2-chlorophenyl]-1-fluoro-1-pentenylphosphonic acid] registered a melting point of 288 to 290 °C. Also, the EC50 on hS1P3 receptors is no less than 1000 nM. In addition, the EC50 at hS1P1 receptors was in the range of 10 to 100 nM.
The matching figures for `CC(N)(CCCc1ccc(Sc2cccc(OCc3ccccc3)c2)cc1Cl)CCP(=O)(O)O` (stereo not drawn) [Example 260, 3-amino-6-[4-(3-benzyloxyphenylthio)-2-chlorophenyl]-3-methylhexylphosphonic acid]: 195 to 197 °C, 100 to 1000 nM and 10 to 100 nM.
The matching figures for `NC(/C=C/P(=O)(O)O)(CO)CCCc1ccc(Sc2cccc(OCc3ccccc3)c2)cc1Cl` (stereo not drawn) [Example 263, 3-amino-[4-(3-benzyloxyphenylthio)-2-chlorophenyl]-3-hydroxymethyl-1-hexenylphosphonic acid]: 243 to 246 °C, 100 to 1000 nM and less than 10 nM.
The matching figures for `NC(CO)(CCCc1ccc(Sc2cccc(OCc3ccccc3)c2)cc1Cl)CCP(=O)(O)O` (stereo not drawn) [Example 265, 3-amino-6-[4-(3-benzyloxyphenylthio)-2-chlorophenyl]-3-hydroxymethylhexylphosphonic acid]: 193 to 196 °C, 100 to 1000 nM and less than 10 nM.
`NC(/C=C/P(=O)(O)O)(CO)CCc1ccc(Sc2cccc(OCc3ccccc3)c2)cc1Cl` (stereo not drawn) [Example 267, 3-amino-5-[4-(3-benzyloxyphenylthio)-2-chlorophenyl]-3-hydroxymethyl-1-pentenylphosphonic acid] gave a melting point of 245 to 248 °C. The concentration giving a half-maximal response (EC50) at hS1P3 receptors was no less than 1000 nM. For the same molecule, the concentration giving a half-maximal response (EC50) at hS1P1 receptors is less than 10 nM.
The matching figures for `NC(CO)(CCc1ccc(Sc2cccc(OCc3ccccc3)c2)cc1Cl)CCP(=O)(O)O` (stereo not drawn) [Example 269, 3-amino-5-[4-(3-benzyloxyphenylthio)-2-chlorophenyl]-3-hydroxymethylpentylphosphonic acid]: 205 to 208 °C, no less than 1000 nM and 10 to 100 nM.
The matching figures for `Cl.NC(CO)(CCCc1ccc(Sc2cccc(OCc3ccccc3)c2)cc1Cl)CP(=O)(O)O` (stereo not drawn) [Example 286, 2-amino-5-[4-(3-benzyloxyphenylthio)-2-chlorophenyl]-2-hydroxymethylpentylphosphonate hydrochloride]: 98 to 101 °C, no less than 1000 nM and 10 to 100 nM.
On to `NC(/C=C/P(=O)(O)O)(CO)CCCCc1ccc(Sc2cccc(OCc3ccccc3)c2)cc1Cl` (stereo not drawn) [Example 290, 3-amino-[4-(3-benzyloxyphenylthio)-2-chlorophenyl]-3-hydroxymethyl-1-heptenylphosphonic acid], for which the melting point was 258 to 260 °C. The half-maximal effective concentration (EC50) at hS1P3 receptors is 10 to 100 nM. Also, the concentration giving a half-maximal response (EC50) at hS1P1 receptors is less than 10 nM.

A word on the EC50: it is the concentration giving half of the maximal effect. Broadly, the inhibition in vivo is the drop in the measured response relative to a control, in per cent. The melting point is the temperature, or range, at which the solid turns liquid.
